In one experiment the target is SARS-CoV-2 M^pro (Severe acute respiratory syndrome coronavirus 2, UniProt P0DTD1). The experiment can be described thus: biochemical. Conditions: for inhibition at 50 µM: read-out: M^pro inhibition.
In the next experiment the test system is SARS-CoV-2 main protease. The following applies: read-out: reported IC50; similar FRET-based assays; cited from earlier work.

Regarding `O=C(CSc1nc2cc(Cl)ccc2n1Cc1ccccc1)N1CCNC1=O` [Compound 8], the “activity in the presence of Triton-X (aggregation control)” value on SARS-CoV-2 M^pro (IC50 experiment repeated with 0.02 % Triton-X in reaction buffer) is recorded as “not attenuated”. For the same molecule, the inhibition (commonly how much of the control response was suppressed) at 50 µM at SARS-CoV-2 M^pro is over 50%.

Take `COCCn1c(C(=O)NCC(O)c2ccccc2)nc2ccccc2c1=O` (stereo not shown) [Compound 10]: the inhibition at 50 µM on SARS-CoV-2 M^pro is over 50%.

Turning to `CC(C)(C)NC(=O)N[C@H](C(=O)N1C[C@H]2[C@@H]([C@H]1C(=O)NC(CC1CCC1)C(=O)C(N)=O)C2(C)C)C(C)(C)C` (stereo partly shown) [boceprevir], the IC50 (usually the concentration at which inhibition is half-maximal) in the experiment on SARS-CoV-2 main protease is […].

The values are drawn from PMC9225965 (Bioorganic & Medicinal Chemistry Letters, 2022).
